# Laboratory results reported in US20230201217A1 (priority 2019, published 2023).
# Key:
# [1] = tested on: mouse liver; assay: In vivo comet assay
# Procedure: The comet assay (alkaline single cell gel electrophoresis) is a microgel electrophoretic technique that detects DNA damage in individual cells. DNA damage can be expressed as DNA single strand breaks, double strand breaks, and strand breaks induced by alkali labile sites. […] For this study, the liver was selected as the tissue for evaluation, since this tissue is expected to contain high concentrations of parent drug and metabolites following oral administration.
# Male mice were administered oral doses of 0 (vehicle=5% dextrose), 50, 90 and 120 mg/kg/day by gavage according to the table below. Animals in groups 1-4 were dosed on three consecutive days and euthanized 3 to 4 hours after the last dose by CO2 inhalation. A separate group of animals were dosed with methyl methanesulfonate (MMS) which served as a positive control. Immediately following euthanasia, the liver was removed and collected from each animal.
# In this study, comet tail migration, % tail DNA (also known as % tail intensity) and tail moment were determined for each animal/treatment group and served as parameters of DNA damage.
# [2] = tested on: male CD-1 mice; assay: Cardiovascular radiotelemetry in conscious CD-1 mice; format: in vivo, mouse
# From the text: The purpose of this study was to explore the physiological changes associated with mortality. Animals were implanted with a radiotelemetry transmitter in the peritoneal cavity with the catheter inserted in the femoral artery and the sensor tip positioned in the abdominal aorta. […] Within one hour of dosing, average heart rate (FIG. 14) decreased about 50%, and significant decreases in systolic (FIG. 15) and diastolic blood pressure (FIG. 16). In addition, body temperature generally dropped at each collection time point, reaching a maximum difference from baseline at 120 minutes post-dose (average change up to 6.5° C.). Following administration of the 200 mg/kg dose, body temperature continued to drop (up to 10.5° C.) until all mice died (˜12 hours post-dose). These changes in body temperature were considered test article-related and correlated to the observed changes in heart rate. Terminally, there was a further decrease in all of the parameters, with the rectal temperatures falling to as low as 22° C. before the mice died. Observed effects on behavior and activity included tremors, twitches, abnormal gait, lethargy, decreased motor activity, increased response to touch and startle, seizures, gasping and slow respirations, exophthalmia, and stupor.
# [3] = tested on: rats trained to self-administer cocaine; assay: Rat cocaine self-administration, oral 18-MC HCl; conditions: for inhibition of cocaine self-administration: 1 hour post-dose
# Procedure: The relationship between in vivo efficacy and plasma drug exposure was investigated in rats trained to self-administer cocaine. […] Blood samples were collected immediately after the one hour session in the operant chamber from the arterial catheter. […] Significant differences from vehicle-treated animals were either p<0.01 (indicated as **) or p<0.05 (indicated as *).
# Significant difference from vehicle-treated group (0 mg/kg on X axis) was p<0.01 (indicated as **) by one-way ANOVA.
# Significant difference from baseline responding was p<0.01 (as indicated by **). […] Blood samples were collected from animals immediately after their cocaine self-administration at approximately 2 hours post dose in the first day of dosing (Day 0), and the last day of dosing (Day 4).
# [4] = Solubility; format: physicochemical
# From the text: 18-MC HCl can be supplied as a dry powder packaged in double plastic bags in an HDPE bottle with desiccant. The 18-MC HCl can be formulated at the clinical site into a solution for dosing patients. […] Based on the properties of the compound, it can also be formulated in a solid oral formulation (tablet, capsule, sachets, granules, etc.)
# Most preferably, an oral dose of the composition is used. An oral dosing formulation was validated by a GLP study.
# [5] = tested on: rats; assay: Single-dose oral toxicity; format: in vivo, rat
# Procedure: Single doses up to 300-400 mg/kg and 800 mg/kg appeared to be generally well tolerated in monkeys and rats, respectively (one monkey treated with 400 mg/kg died in the 2-week GLP study on Day 1 of dosing). […] In mice, mortality was consistently seen following single doses 150 mg/kg. Preliminary 5-day repeat-dose range-finding studies were conducted in mice, rats and monkeys. The definitive 14-day studies in mouse and monkey yielded generally similar results to those observed in the 5-day studies.
# [6] = target: CYP1A2 (Homo sapiens, UniProt P05177); conditions: recombinant enzyme
# Procedure: (§2) Control incubations were performed for each assay with appropriate positive inhibitory controls.
# [7] = Phase 1 first-in-human study, pharmacokinetics in plasma
# Procedure: Fourteen normal, healthy volunteers were enrolled in the study. Seven volunteers were treated in the first cohort (3 placebo, 4 received a single dose of 20 mg of 18-MC) and seven in the second cohort (2 placebo, 5 received 8 mg as 4 mg doses of 18-MC administered at 0 and plus 10 hours). For Cohort A, volunteers were monitored in a hospital unit for 2 days (36 hours) days, and were followed up for safety at Days 3, 7 and 30. For Cohort B, volunteers were monitored in a hospital unit for 2 days (36 hours), and were followed up for safety at Days 3, 4, 7 and 30.
# This study was designed as a randomized, double-blind, placebo-controlled, single-center Phase 1 first-in-human clinical trial. After screening, volunteers were admitted to the hospital for 36 hours. […] Study article was initiated on Day 1 and volunteers were discharged on Day 2. Cohort A were seen as outpatients on Days 3, 7 and 30. Cohort B were seen as outpatients on Days 3, 4, 7 and 30. 14 subjects were in the study, 5 male and 9 female.
# For Cohort A, pharmacokinetic samples were obtained at baseline and at 0.5, 1.0, 2.0, 6.0, 12.0, 24, 36 hours, and 7 days post dose.
# Samples underwent two analyses: A research assay (LG/MS/TOF) developed by MicroConstants, Inc., was used to collect the raw data. The first analysis was to quantitate 18-MG and the known metabolites M2, M4 and M5 (using standard curves included in the run). The second analysis compared the peak heights of 18-MG and all the metabolites that could be identified in terms of relative peak height (M1 through M10, and P1-P3).
# [8] = target: Mu opioid receptor (Homo sapiens, UniProt P35372); assay: In vitro radio-ligand assay; format: binding; conditions: 10 μM
# Procedure: (§1) The binding potential of 18-MC with 64 neurotransmitter-related binding sites was evaluated (TABLE 2).
# [9] = tested on: adrenergic alpha-1 receptor; assay: In vitro radio-ligand assay; format: binding; conditions: 10 μM
# Procedure: as §1
# [10] = tested on: sodium site 2 channel; assay: In vitro radio-ligand assay; format: binding; conditions: 10 μM
# Procedure: as §1
# [11] = Toxicokinetics, 14-day study in cynomolgus monkeys; format: in vivo, cynomolgus monkey
# Procedure: The animals received 400 mg/kg on Day 1 and thereafter 300 mg/kg/day. The relative concentrations of the metabolites and 18-MC were determined by the peak-heights by UPLC/MS/MS method. Major metabolites were identified as M5>>M2>>P2. Metabolite M4 was on the borderline to be considered a major metabolite. The parent 18-MC exposure was less than 3% of the total drug and metabolite exposure.
# Assessments of neurobehavioral effects and general toxicity were based on mortality, functional observational battery (FOB) evaluations, clinical observations, body weight, and body temperature; ophthalmoscopic, electrocardiographic examinations; and anatomic and clinical pathology. The anatomical pathology evaluations included histopathology of a full list of tissues from all animals and a comprehensive evaluation of the central nervous system (including selected peripheral nerves) utilizing whole body perfusion and special stains. Bone marrow smears from all animals were evaluated microscopically. Complete differentials and myeloid-erythroid (ME) ratios were performed. Toxicokinetic assessment was conducted for the test article and metabolites.
# Systemic exposure to […] was independent of sex. […] The following discussion is therefore based on data for males and females combined.
# [12] = target: CYP2A6 (Homo sapiens, UniProt P11509); conditions: recombinant enzyme
# Procedure: as §2
# [13] = cohort B, 4 mg PO at 0 and +10 hours
# Mu opioid receptor, sequence (P35372 whole entry, species assumed): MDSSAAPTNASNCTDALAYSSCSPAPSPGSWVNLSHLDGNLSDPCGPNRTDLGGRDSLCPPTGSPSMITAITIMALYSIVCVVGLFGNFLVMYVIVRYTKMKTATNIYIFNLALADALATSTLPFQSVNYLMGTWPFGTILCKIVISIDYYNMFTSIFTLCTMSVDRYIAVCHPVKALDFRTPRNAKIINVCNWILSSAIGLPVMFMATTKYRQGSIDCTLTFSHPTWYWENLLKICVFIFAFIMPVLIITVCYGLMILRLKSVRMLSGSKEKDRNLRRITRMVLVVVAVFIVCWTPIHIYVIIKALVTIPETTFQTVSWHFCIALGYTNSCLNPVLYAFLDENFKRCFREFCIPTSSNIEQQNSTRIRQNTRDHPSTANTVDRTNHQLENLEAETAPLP
# CYP1A2, sequence (P05177 whole entry): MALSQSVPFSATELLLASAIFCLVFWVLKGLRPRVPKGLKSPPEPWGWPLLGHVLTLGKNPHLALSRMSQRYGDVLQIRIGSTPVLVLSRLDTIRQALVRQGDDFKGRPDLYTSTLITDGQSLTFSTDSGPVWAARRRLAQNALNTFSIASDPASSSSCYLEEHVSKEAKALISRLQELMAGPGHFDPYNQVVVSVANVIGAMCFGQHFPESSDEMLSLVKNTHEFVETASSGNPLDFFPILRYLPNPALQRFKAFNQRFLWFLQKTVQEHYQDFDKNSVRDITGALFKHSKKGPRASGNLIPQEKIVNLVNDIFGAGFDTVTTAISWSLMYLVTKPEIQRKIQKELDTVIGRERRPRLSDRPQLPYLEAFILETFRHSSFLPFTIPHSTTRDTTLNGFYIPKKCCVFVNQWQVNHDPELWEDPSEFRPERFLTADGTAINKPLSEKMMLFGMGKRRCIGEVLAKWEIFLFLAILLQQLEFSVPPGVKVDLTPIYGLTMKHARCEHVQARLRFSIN
# CYP2A6, sequence (P11509 whole entry): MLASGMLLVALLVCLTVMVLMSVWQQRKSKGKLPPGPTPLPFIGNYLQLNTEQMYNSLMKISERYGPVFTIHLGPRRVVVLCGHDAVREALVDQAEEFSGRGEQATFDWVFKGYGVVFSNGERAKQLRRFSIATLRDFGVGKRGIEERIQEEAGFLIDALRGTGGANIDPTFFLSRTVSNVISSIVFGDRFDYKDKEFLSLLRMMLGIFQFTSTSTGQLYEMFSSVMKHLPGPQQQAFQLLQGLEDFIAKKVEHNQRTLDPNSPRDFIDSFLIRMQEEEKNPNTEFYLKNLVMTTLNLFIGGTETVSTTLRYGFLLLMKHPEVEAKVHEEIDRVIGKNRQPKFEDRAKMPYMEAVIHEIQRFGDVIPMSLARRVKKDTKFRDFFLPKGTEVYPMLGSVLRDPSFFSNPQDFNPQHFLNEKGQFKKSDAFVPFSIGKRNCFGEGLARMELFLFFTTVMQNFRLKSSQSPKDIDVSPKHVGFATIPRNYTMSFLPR
smiles,measurement,setting,value
"COCCC1CC2CN3CCc4c([nH]c5ccccc45)C(C(=O)OC)(C2)C13.Cl (stereo not shown) [18-MC HCl, 18-Methoxycoronaridine hydrochloride]",mean % tail DNA,"[1]; 90 mg/kg/day, vehicle 1.27+/−0.52",2.60+/−0.7%
same,mouse comet assay result,"[1]; 50, 90, 120 mg/kg/day, 3 days",negative
same,average change in body temperature from baseline,"[2]; 100 mg/kg, 120 minutes post-dose",up to 6.5 °C
same,mortality,[2]; after 100 mg/kg oral dose,Two of the 6 animals died
same,mortality,[2]; after the 200 mg/kg dose (8 hours after 100 mg/kg),all of the other animals died
same,"rectal temperature, terminal",[2]; before the mice died,≥ 22 °C
same,drop in body temperature,[2]; following the 200 mg/kg dose,up to 10.5 °C
same,decrease in average heart rate,[2]; within one hour of dosing,about 50%
same,inhibition of cocaine self-administration,[3]; 120 mg/kg p.o.,50%
same,inhibition of cocaine self-administration on repeated dosing,"[3]; 600 mg/kg/day, 5 consecutive days",did not result in greater inhibition
same,inhibition of cocaine self-administration,[3]; 800 mg/kg p.o.,82%
same,solubility in dimethyl sulfoxide (DMSO),[4],freely soluble
same,maximum solubility,[4]; 5% dextrose (pH 3.0),40 mg/mL
same,solubility in aqueous solution,[4]; neutral and alkaline pH,poorly soluble
same,single dose generally well tolerated,[5],≤ 800 mg/kg
"COCC[C@H]1CC2CN3CCc4c([nH]c5ccccc45)[C@](C(=O)OC)(C2)[C@H]13 [18-MC, 18-methoxycoronaridine]",IC50,[6],> 100 µM
same,elimination half-life,"[7]; 4 mg at 0 and +10 hours (8 mg total), longer sampling interval",about 48 hours
same,Tmax,"[7]; cohort A or B, generally",½
same,"AUCall, Average","[7]; cohort A, 20 mg PO single dose",339 ng·h/mL
same,"AUCall, Max","[7]; cohort A, 20 mg PO single dose",447 ng·h/mL
same,"AUCall, Min","[7]; cohort A, 20 mg PO single dose",241 ng·h/mL
same,"Cmax, Average","[7]; cohort A, 20 mg PO single dose",119 ng/mL
same,"Cmax, Max","[7]; cohort A, 20 mg PO single dose",182 ng/mL
same,"Cmax, Min","[7]; cohort A, 20 mg PO single dose",92 ng/mL
same,"Half-Life, Average","[7]; cohort A, 20 mg PO single dose",17.9 h
same,"Half-Life, Max","[7]; cohort A, 20 mg PO single dose",21.7 h
same,"Half-Life, Min","[7]; cohort A, 20 mg PO single dose",14.2 h
same,"Tmax, Average","[7]; cohort A, 20 mg PO single dose",0.5 h
same,"Tmax, Max","[7]; cohort A, 20 mg PO single dose",0.5 h
same,"Tmax, Min","[7]; cohort A, 20 mg PO single dose",0.5 h
same,"AUCall, Average",[7]; [13],195 ng·h/mL
same,"AUCall, Max",[7]; [13],400 ng·h/mL
same,"AUCall, Min",[7]; [13],124 ng·h/mL
same,"Cmax, Max",[7]; [13],46 ng/mL
same,"Cmax, Min",[7]; [13],20 ng/mL
same,"Half-Life, Average",[7]; [13],16.9 h
same,"Half-Life, Max",[7]; [13],52.2 h
same,"Half-Life, Min",[7]; [13],3.0 h
same,"Tmax, Average",[7]; [13],2.55 h
same,"Tmax, Max",[7]; [13],10.25 h
same,"Tmax, Min",[7]; [13],0.5 h
same,binding,[8],binding was seen
same,binding,[9],binding was seen
same,binding,[10],binding was seen
same,AUC,"[11]; Day 14, 300 mg/kg 18-MC HCl",1210 ng·h/mL
same,Cmax,"[11]; Day 14, 300 mg/kg 18-MC HCl",144 ng/mL
same,AUC(0-24),"[11]; Day 14, 400 mg/kg 1 day then 300 mg/kg/day, averaged across the sexes",144000 ng·h/mL
same,time of median peak plasma concentration,"[11]; all dose groups, Days 1 and 14",≤ 1 h
same,IC50,[12],> 100 µM
